Reference: US8173696B2, “Inhibitors of cysteine proteases and methods of use thereof” (Baylor University, priority 2007, dated 2012)
Like-named read-outs stand apart in the source and are kept apart here.

Legend:
Cat B = Cat B (Homo sapiens, UniProt P07858); assay: Cathepsin B inhibition in vitro; assay type: biochemical
Protocol: For in vitro cysteine protease inhibition determinations, a compound's effectiveness can be given by an IC50 value. In these assays, the enzyme to be inhibited (e.g., a cruzain or cruzipain, a rhodesain, a brucipain, a congopain, a falcipain, CPB2.8 Delta CTE, a cathepsin-L, cathepsin-B, a cathepsin-H, a cathepsin-K, a cathepsin-S) is first incubated with varying concentrations (about 20-50,000 nM) of a test compound. To this is added a short peptide substrate of the enzyme of 1 to 10 amino acids, usually a di- or tri-peptide substrate, which is labeled with either a fluorogenic or chromogenic moiety. An exemplary chromogenic moiety is p-nitro-anilide (pNA). […] Exemplary peptide substrates include Phe-Arg, Arg-Arg, Phe-Arg-X (X=Ala, Arg), and Phe-X-Ser-Arg-Gln (X=Arg, 4-aminomethyl-phenylalanine (Arm), 4-aminomethyl-N-isopropyl-phenylalanin-e (laf), 4-piperidinyl-alanine (Ppa) or 4-aminocyclohexyl-alanine (Aca)). Cleavage of the labeled substrate induces a chromogenic or fluorescent signal that is measured using spectrophotometer or a spectrofluorometer, respectively. Signals induced in the presence of varying concentrations of test compound are measured in comparison to a positive control of enzyme and substrate and a negative control of enzyme in diluent (e.g., DMSO). Spontaneous cleavage of substrate is measured in controls with substrate alone. IC50 values are determined graphically using compound inhibitor concentrations in the linear portion of a plot of inhibition versus log [I].

Human liver cathepsin L = target: T1, Human liver cathepsin L (Homo sapiens, UniProt P07711); assay: Cathepsin L inhibition in vitro (Z-FR-AMC fluorescence); assay type: biochemical
T1 construct: from tissue; host or cells: human liver
Protocol: Human liver cathepsin L (1 nM) was incubated in 50 mM sodium acetate buffer, pH 5.5 containing 1 mM EDTA, 2 mM DTT, 0.001% (v/v) brij 35 with potential inhibitors at 20 different concentrations (from 0.05 nM to 50 μM) at 25° C. for 5 minutes before 100 μL substrate (benzyloxycarbonyl-L-phenylalanyl-L-arginyl-7-amido-4-methylcoumarin, abbreviated as Z-FR-AMC, 50 μM in final assay condition) was added to the enzyme-inhibitor mixture; total volume was 200 μL. Controls were performed using enzyme alone, substrate alone, and enzyme with DMSO. […] Spectra were taken at 3-sec intervals for 3 minutes. IC50 values were determined by non-linear regression analysis using vo(inh)=VMAX/{1+10(logIC50−x)*Hillslope} and Prism software (GraphPad).

Cruzain = Cruzain (Trypanosoma cruzi, UniProt P25779); assay: biochemical; assay type: biochemical; details: Table A; 0.1 nM cruzain, pH 5.50, 25° C., 10 μM Z-Phe-Arg-AMC
Protocol: Cruzain (0.1 nM) in 100 mM sodium acetate buffer (pH 5.50) containing 5 mM DTT was preincubated for 5 min at 25° C. with inhibitor.

cathepsin L [1] = assay: Inhibition of activated cathepsin L secreted in DU-145 cell conditioned media; assay type: cell-based; details: compound 20 μM, replicate samples a-c
Protocol: (§1) A prostrate carcinoma derived cell line (DU-145) was maintained in free phenol red DMEM supplemented with 10% fetal bovine serum, 1% glutamine, 1% glutamax, 1% Penicillin-Streptomycin and 1 mM sodium pyruvate, at 37° C. in an atmosphere of 95% air/5% CO2. DU145 was plated at 4×10^6 cells/10 cm Petri dish for dense, super confluent density. These cultures were incubated for 3 days before collection. Twenty-four hours prior to harvesting, cells were fed with serum-free media or serum-free media containing inhibitors at a final concentration of 20 μM. On the day of harvesting, the serum-free medium was collected for assay of Cathepsin L activity secreted in the medium. The cells were rinsed in cold PBS (pH 7.2) and collected in cold PBS containing […]. The cells were lysed using a Sonicator (Misonix 3000) at medium setting with pauses at 0° C. for temperature equilibration. Then the homogenate was centrifuged at 13,000×g for 20 min and the supernatant saved. […] Fluorescence was measured in a Fluoro Max 2 (Jobin Yvon) spectrofluorometer at an excitation wavelength of 355 nm and an emission wavelength of 460 nm. The substrate is hydrolyzed by cathepsin L and to a smaller extent by cathepsin B, therefore the activity is referred to as cathepsin L+B activity. Data analysis was performed using Prism software (GraphPad version 4). Data corresponding to cathepsin L activity (after activation) in cell conditioned media in the presence of Compound 14 (20 μM) is summarized in Table 3 below. Data corresponding to cathepsin L activity (after activation) in cell conditioned media in the presence of Compound 27 (20 μM) is summarized in Table 4 below.

cathepsin L [2] = assay: Inhibition of activated cathepsin L in DU-145 cell lysates; assay type: cell-based; details: DU-145 cell lysates preincubated for 24 h with compound, following removal of media, replicate samples a-c; for activity (cathepsin L activity after activation): control 6.93E−03; for cps (cathepsin L activity after activation): control 26950
Protocol: as §1, with “cell lysates preincubated for 24 h with” for “cell conditioned media in the presence of”, “14 and following the removal of media” for “14 (20 μM)”, “Table 5” for “Table 3”, “27 and following the removal of media” for “27 (20 μM)”, “Table 6” for “Table 4”

[3] = Table A, 1 nM human liver cathepsin L, pH 5.5, 25° C., 50 μM Z-FR-AMC, read-out: Cat L IC50

T1 sequence (P07711 114-333): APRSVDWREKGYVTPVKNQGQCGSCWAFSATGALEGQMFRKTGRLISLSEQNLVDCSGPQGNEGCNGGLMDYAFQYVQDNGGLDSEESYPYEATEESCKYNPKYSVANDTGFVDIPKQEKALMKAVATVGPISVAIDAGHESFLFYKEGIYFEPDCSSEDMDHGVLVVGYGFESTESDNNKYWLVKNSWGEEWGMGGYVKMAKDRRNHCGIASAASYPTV
Sequence of Cruzain (P25779 123-467): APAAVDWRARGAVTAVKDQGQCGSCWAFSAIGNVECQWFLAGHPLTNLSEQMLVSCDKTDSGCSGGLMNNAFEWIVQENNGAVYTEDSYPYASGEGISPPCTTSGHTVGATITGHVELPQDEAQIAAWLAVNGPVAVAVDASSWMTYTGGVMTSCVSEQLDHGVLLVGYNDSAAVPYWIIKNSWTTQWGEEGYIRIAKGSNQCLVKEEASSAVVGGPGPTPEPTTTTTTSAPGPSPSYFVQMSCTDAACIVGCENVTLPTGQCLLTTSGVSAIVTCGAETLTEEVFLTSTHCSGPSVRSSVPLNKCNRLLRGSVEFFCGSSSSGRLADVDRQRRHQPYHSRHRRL

SMILES	IC50 (Human liver cathepsin L; [3]) [nM]	IC50 (Cruzain) [nM]	also measured
CC/C(=N\NC(N)=S)c1cccc(Br)c1 [Compound 5, 3-Bromopropiophenone thiosemicarbazone]	–	–	IC50 (Cat B; Table B, unit inferred, read-out: Cat B): > 50000 nM; IC50 (Human liver cathepsin L; Table B, unit inferred, read-out: Cat L): > 10000 nM
CC/C(=N\NC(N)=S)c1cccc([N+](=O)[O-])c1 [Compound 6, 3-Nitropropiophenone thiosemicarbazone]	5790	860	–
CC/C(=N\NC(N)=S)c1cccc(O)c1 [Compound 7, 1-(3-Hydroxyphenyl)-1-propanone thiosemicarbazone]	2570	–	–
CC/C(=N\NC(N)=S)c1cccc(N)c1 [Compound 8, 3-Aminopropiophenone thiosemicarbazone]	1640	3640	–
NC(=S)N/N=C(\c1ccccc1)c1cccc(Br)c1 [Compound 13, Phenyl(3-bromophenyl) ketone thiosemicarbazone]	16200	80	–
NC(=S)N/N=C1\CCCc2c(Br)cccc21 [Compound 20, 5-Bromo-1-tetralone thiosemicarbazone]	367	1200	–
NC(=S)N/N=C1\CCCc2ccc(Br)cc21 [Compound 21, 7-Bromo-1-tetralone thiosemicarbazone]	619	17	–
NC(=S)N/N=C1\CCS(=O)(=O)c2ccc(Br)cc21 [Compound 23, 6-Bromo-1,1-dioxo-1-thiochroman-4-one thiosemicarbazone]	1	210	–
NC(=S)N/N=C1\CCS(=O)(=O)c2c(Br)cc(Br)cc21 [Compound 24, 6,8-Dibromo-1,1-dioxo-1-thiochroman-4-one thiosemicarbazone]	716	820	–
NC(=S)N/N=C1\CCOc2ccccc21 [Compound 26]	6380	–	–
NC(=S)N/N=C1\CCS(=O)(=O)c2ccccc21 [Compound 27]	5050	–	activity (cathepsin L activity after activation) (cathepsin L [1]; control 1.50E−03, listed as 27a): 0.000101 µM/s; activity (cathepsin L activity after activation) (cathepsin L [1]; control 1.50E−03, listed as 27b): 9.46e-05 µM/s; activity (cathepsin L activity after activation) (cathepsin L [1]; control 1.50E−03, listed as 27c): 9.81e-05 µM/s; cps (cathepsin L activity after activation) (cathepsin L [1]; control 5848, listed as 27a): 393.7 cps; cps (cathepsin L activity after activation) (cathepsin L [1]; control 5848, listed as 27b): 367.5 cps; cps (cathepsin L activity after activation) (cathepsin L [1]; control 5848, listed as 27c): 381.1 cps; activity (cathepsin L activity after activation) (cathepsin L [2]; listed as 27a): 0.00308 µM/s; activity (cathepsin L activity after activation) (cathepsin L [2]; listed as 27b): 0.00255 µM/s; activity (cathepsin L activity after activation) (cathepsin L [2]; listed as 27c): 0.00275 µM/s; cps (cathepsin L activity after activation) (cathepsin L [2]; listed as 27a): 11990 cps; cps (cathepsin L activity after activation) (cathepsin L [2]; listed as 27b): 9918 cps; cps (cathepsin L activity after activation) (cathepsin L [2]; listed as 27c): 10690 cps
CC(=O)C1=CCCc2ccccc21 [Compound 37, [1-(3,4-Dihydronaphthalenyl)]methyl ketone]	> 10000	–	–
C=CC(=O)C1=CCCc2ccc(Br)cc21 [Compound 38]	372	–	–
NC(=S)N/N=C1\CCC(c2ccc(Br)cc2)C1 (stereo not shown) [Compound 46]	> 10000	> 5000	–
NC(=S)N/N=C1\CCCC(c2ccc(Br)cc2)C1 (stereo not shown) [Compound 47]	2910	> 7000	–
NC(=S)N/N=C1\CCc2ccccc2O1 [Compound 48]	2450	> 17000	–
NC(=S)N/N=C1\CCc2ccccc21 [Compound 49]	> 10000	–	–
NC(=S)N/N=C1\CCc2ccc(Br)cc2C1 [Compound 69, 7-Bromo-2-tetralone thiosemicarbazone]	4260	> 17000	IC50 (Cat B; Table A, read-out: Cat B IC50): < 50000 nM
NC(=S)N/N=C1\CCc2c(Br)cc(Br)cc2C1 [Compound 70, 5,7-Dibromo-2-tetralone thiosemicarbazone]	10900	4480	IC50 (Cat B; Table A, read-out: Cat B IC50): > 50000 nM
